Measured values published in patent US20140329863A1 (priority 2011, published 2014).
Converted amounts (≈) assume the structure as drawn. Where two headings read alike, the source gives them in different places.

Columns and labels:
[1] = test system: PrP^Sc in dividing ScN2a-cl3 cells; assay type: cell-based, mouse
[2] = test system: PrP^Sc in ScN2a-cl3 cells; assay type: cell-based, mouse; settings: Western immunoblots
[3] = test system: N2a-cl3 cells; settings: mouse
[4] = in vitro; settings: mouse
[5] = Single-dose pharmacokinetics in FVB mice (oral gavage, IV); settings: single oral dose 10 mg/kg; for Brain/Plasma AUClast Ratio: FVB mice; for AUClast ± SD, Brain / AUClast ± SD, Plasma: two FVB mice
[6] = physchem
[7] = read-out: EC50 (nM): ELISA, dividing ScN2a-cl3 cells
[8] = read-out: Potency (nM) ELISA (EC50), PrP^Sc ELISA, dividing ScN2a-cl3 cells
[9] = read-out: EC50 (nM): Western, ScN2a-cl3 cells
[10] = read-out: Potency (nM) Western (EC50), dividing ScN2a-cl3 cells
[11] = pH 1.2, simulated gastric fluid

Cn1c(=N)n(CC(=O)c2ccc(Br)cc2)c2ccccc21 [IND-0044723]
EC50 [1, 7]: 1980 nM | EC50 [1, 8]: 1980 nM | EC50 [2, 9]: 1450 nM | EC50 [2, 10]: 1450 nM | EC50 (nM): Calcein (LC50 values from calcein assays) [3]: MW: 344.2 EC50 (nM): ELISA: 1983 Calcein: >10,000 Western: 1453 | CC50 [4]: > 10000 nM

CN1CCN(c2ccc(Nc3ccnc4cc(Cl)ccc34)cc2)CC1 [IND-0045193]
EC50 [1, 7]: 1220 nM | EC50 [1, 8]: 1220 nM | EC50 [2, 9]: 2070 nM | EC50 [2, 10]: 2070 nM | EC50 (nM): Calcein (LC50 values from calcein assays) [3]: MW: 352.9 EC50 (nM): ELISA: 1220 Calcein: >10,000 Western: 2073 | CC50 [4]: > 10000 nM | Brain/Plasma AUClast Ratio [5]: 4.72 | AUClast ± SD, Brain [5]: 7.36 ± 0.78 µM·h | AUClast ± SD, Plasma [5]: 1.56 ± 0.31 µM·h

COc1cc(CNCCO)cc(Br)c1OCc1ccccc1Cl [IND-0046380]
EC50 [1, 7]: 5080 nM | EC50 [1, 8]: 5080 nM | EC50 [2, 9]: 2150 nM | EC50 [2, 10]: 2150 nM | EC50 (nM): Calcein (LC50 values from calcein assays) [3]: MW: 400.7 EC50 (nM): ELISA: 5080 Calcein: >10,000 Western: 2148 | CC50 [4]: > 10000 nM

Oc1ccc(/C=C/c2cc(O)cc(O)c2)cc1 [IND-0047971]
EC50 [1, 7]: 2260 nM | EC50 [1, 8]: 2260 nM | EC50 [2, 9]: 584 nM | EC50 [2, 10]: 584 nM | EC50 (nM): Calcein (LC50 values from calcein assays) [3]: MW: 228.2 EC50 (nM): ELISA: 2260 Calcein: >10,000 Western: 584 | CC50 [4]: > 10000 nM

N#Cc1ccc(/C=C/c2ccc(F)cc2)cc1 [IND-0047979]
EC50 [1, 7]: 1700 nM | EC50 [1, 8]: 1700 nM | EC50 [2, 9]: 528 nM | EC50 [2, 10]: 528 nM | EC50 (nM): Calcein (LC50 values from calcein assays) [3]: MW: 223.3 EC50 (nM): ELISA: 1700 Calcein: >10,000 Western: 528 | CC50 [4]: > 10000 nM

COc1ccc2cc3c(N)c(C(=O)Nc4ccc(C(C)=O)cc4)sc3nc2c1 [IND-0052025]
EC50 ([1]; read-out: Antiprion activity EC50, thienopyridine analogs): 74 nM | EC50 [1, 7]: 57 nM | EC50 [1, 8]: 57 nM | EC50 [2, 9]: 61 nM | EC50 [2, 10]: 61 nM | EC50 (nM): Calcein (LC50 values from calcein assays) [3]: MW: 391.4 EC50 (nM): ELISA: 57 Calcein: >10,000 Western: 61 | CC50 [4]: > 10000 nM

N#Cc1sc2nc(-c3ccc4c(c3)OCO4)ccc2c1N [IND-0052851]
EC50 [1, 7]: 962 nM | EC50 [1, 8]: 962 nM | EC50 [2, 9]: 518 nM | EC50 [2, 10]: 518 nM | EC50 (nM): Calcein (LC50 values from calcein assays) [3]: MW: 295.3 EC50 (nM): ELISA: 962 Calcein: >10,000 Western: 518 | CC50 [4]: > 10000 nM | Brain/Plasma AUClast Ratio [5]: 2.59 | AUClast ± SD, Brain [5]: 2.12 ± 0.93 µM·h | AUClast ± SD, Plasma [5]: 0.82 ± 0.31 µM·h

CCOc1ccc(C(=O)Nc2ccc3oc(-c4ccc(OC)cc4)nc3c2)cc1 [IND-0114138]
EC50 [1, 7]: 65 nM | EC50 [1, 8]: 65 nM | EC50 [2, 9]: 134 nM | EC50 [2, 10]: 134 nM | EC50 (nM): Calcein (LC50 values from calcein assays) [3]: MW: 388.4 EC50 (nM): ELISA: 65 Calcein: >10,000 Western: 134 | CC50 [4]: > 10000 nM

COc1ccc(-c2nc3cc(NC(=O)c4ccc(OCc5ccccc5)cc4)ccc3o2)cc1 [IND-0114202]
EC50 [1, 7]: 57 nM | EC50 [1, 8]: 57 nM | EC50 [2, 9]: 2560 nM | EC50 [2, 10]: 2560 nM | EC50 (nM): Calcein (LC50 values from calcein assays) [3]: MW: 450.5 EC50 (nM): ELISA: 57 Calcein: >10,000 Western: 2565 | CC50 [4]: > 10000 nM

Cc1cccc(Nc2nc(-c3ccc(-c4ccc(N(C)C)nc4)cc3)cs2)n1 [IND-0116044]
solubility [6, 11]: 77.1 µM (≈ 29.9 µg/mL) | solubility ([6]; pH 7.4, aqueous buffer): 14.3 µM (≈ 5.54 µg/mL)

Cc1cccc(Nc2nc(-c3ccc(-c4ccc(OC(C)C)nc4)cc3)cs2)n1 [IND-0116091]
solubility [6, 11]: 13.1 µM (≈ 5.27 µg/mL) | solubility ([6]; pH 7.4, aqueous buffer): 3.2 µM (≈ 1.29 µg/mL)

Cc1cccc(Nc2nc(-c3ccc(-c4cc[n+]([O-])cc4)cc3)cs2)n1 [IND-0116092]
solubility [6, 11]: 17.6 µM (≈ 6.34 µg/mL) | solubility ([6]; pH 7.4, aqueous buffer): 15.2 µM (≈ 5.48 µg/mL)

COCCOc1ccc(-c2ccc(-c3csc(Nc4cccc(C)n4)n3)cc2)cn1 [IND-0116094]
solubility [6, 11]: 62.8 µM (≈ 26.3 µg/mL) | solubility ([6]; pH 7.4, aqueous buffer): 2.2 µM (≈ 0.921 µg/mL)

Cc1cccc(Nc2nc(-c3ccc(-c4ccc[n+]([O-])c4)cc3)cs2)n1 [IND-0116097]
solubility [6, 11]: 49 µM (≈ 17.7 µg/mL) | solubility ([6]; pH 7.4, aqueous buffer): 5.1 µM (≈ 1.84 µg/mL)

COCCOc1cccc(Nc2nc(-c3ccc(-c4ccccc4)cc3)cs2)n1 [IND-0116102]
solubility [6, 11]: 2.1 µM (≈ 0.847 µg/mL) | solubility ([6]; pH 7.4, aqueous buffer): 2.7 µM (≈ 1.09 µg/mL)

Cc1cccc(Nc2nc(-c3ccc(-c4ccc(N5CCN(C)CC5)nc4)cc3)cs2)n1 [IND-0116103]
solubility [6, 11]: 37.1 µM (≈ 16.4 µg/mL) | solubility ([6]; pH 7.4, aqueous buffer): 4.4 µM (≈ 1.95 µg/mL)

Cc1cccc(Nc2nc(-c3ccc(-c4ccnc(N5CCN(C)CC5)c4)cc3)cs2)n1 [IND-0116134]
solubility [6, 11]: 81.8 µM (≈ 36.2 µg/mL) | solubility ([6]; pH 7.4, aqueous buffer): 40.2 µM (≈ 17.8 µg/mL)

CN(C)c1cc(-c2ccc(-c3csc(NC(=O)C4CC4)n3)cc2)ccn1 [IND- 116123]
solubility [6, 11]: > 150 µM | solubility ([6]; pH 7.4, aqueous buffer): < 0.5 µM
